Among the data in ChEMBL document CHEMBL4184256, “Synthesis and biological evaluation of longanlactone analogues as neurotrophic agents” (Bioorg Med Chem Lett, 2018) are Activity and IC50 values, retold here.

pIC50: −log10 of the molar value. Calls of active or inactive are those of the source. The calls are words filed in the database; no cut-off is given here.

Experiment [1] has as its system N2a. Nature of the experiment: Neurotrophic activity in mouse Neuro2a cells assessed as increase in neurite length at 0.01 uM incubated for 48 hrs relative to untreated control. Format: functional.
The subject of experiment [2] is N2a. Nature of the experiment: Neurotrophic activity in mouse Neuro2a cells assessed as increase in neurite length at 0.1 uM incubated for 48 hrs relative to untreated control. Format: functional.
Experiment [3] deals with N2a. Nature of the experiment: Cytotoxicity in mouse Neuro2a cells assessed as reduction in cell viability by MTT assay. Format: cell-based. For orientation: Formazan colour is commonly taken as a measure of viable cells.
Experiment [4] concerns N2a. Description: Neurotrophic activity in mouse Neuro2a cells assessed as increase in BDNF mRNA expression at 0.1 uM incubated for 2 hrs by RT-qPCR method relative to untreated control. For orientation: Quantitative PCR measures a nucleic acid by following its amplification.
Experiment [5] deals with N2a. Description: Neurotrophic activity in mouse Neuro2a cells assessed as increase in NT3 mRNA expression at 0.1 uM incubated for 2 hrs by RT-qPCR method relative to untreated control.
Experiment [6] has as its system N2a. Nature of the experiment: Neurotrophic activity in mouse Neuro2a cells assessed as increase in NT3 mRNA expression at 0.01 uM incubated for 2 hrs by RT-qPCR method relative to untreated control.
Experiment [7] deals with N2a. Nature of the experiment: Neurotrophic activity in mouse Neuro2a cells assessed as increase in BDNF mRNA expression at 0.01 uM incubated for 2 hrs by RT-qPCR method relative to untreated control.

One may read the pIC50 as −log10 of the IC50, conventionally taken in molar units.

Consider `C#CC[C@@H]1C[C@H](n2cccc2C(=O)CC)C(=O)O1`, for which the Activity with N2a [1] was 11.63%; in the experiment on N2a [2], 9.47%. Moreover, the pIC50 in the experiment on N2a [3] was 4.39.
Consider `C#CC[C@@H]1C[C@H](n2cccc2C(C)=O)C(=O)O1`, for which the result with N2a [4] was Active. For the same compound, the Activity was determined as 8.03% with N2a [1] and 37.01% in the experiment on N2a [2]. The pIC50 in the experiment with N2a [3] is 3.92. Moreover, the result in the experiment on N2a [5] was inactive.
In the case of `C#CC[C@H]1C[C@H](n2cccc2C(C)=O)C(=O)O1`, the Activity is on record as 9.04% in the experiment with N2a [1] and 20.95% in the experiment with N2a [2]. Besides, the pIC50 in the experiment on N2a [3] is less than 4.00.
Turning to `CC(=O)c1cccn1[C@H]1C[C@H](CC#Cc2ccc([N+](=O)[O-])cc2)OC1=O`, the Activity amounted to 1.43% in the experiment with N2a [1] and 13.27% in the experiment with N2a [2]. In addition, the pIC50 with N2a [3] was less than 4.00.
For `CC(=O)c1cccn1[C@H]1C[C@@H](CC#Cc2ccc([N+](=O)[O-])cc2)OC1=O`, the Activity is reported as -7.58% in the experiment with N2a [1] and 9.11% in the experiment on N2a [2]. Also, the pIC50 in the experiment with N2a [3] was less than 4.00.
With `CC(=O)c1cccn1[C@H]1C[C@@H](Cc2cn(Cc3ccccc3)nn2)OC1=O`, the values for the Activity in the experiment with N2a [1] and in the experiment on N2a [2] were 5.41% and 15.62%, respectively. Moreover, in the experiment with N2a [3], the pIC50 was 4.04.
For `C#CC[C@@H]1C[C@H](n2cccc2)C(=O)O1`, the figures for the Activity with N2a [1] and with N2a [2] were 6.56% and 10.9%, respectively. The pIC50 in the experiment with N2a [3] is not above 4.00.
Take `C#CC[C@@H]1C[C@H](n2cccc2C(=O)C(F)(F)F)C(=O)O1`: the results for the Activity with N2a [1] and in the experiment on N2a [2] were 33.74% and 41.02%, respectively. Moreover, the outcome in the experiment on N2a [6] was inactive. The pIC50 in the experiment on N2a [3] is less than 4.00. Moreover, the result in the experiment on N2a [7] was Active.
In the case of `C#CC[C@H]1C[C@H](n2cccc2)C(=O)O1`, the values for the Activity with N2a [1] and in the experiment on N2a [2] were 12.15% and 14.56%, respectively. Besides, in the experiment with N2a [3], the pIC50 was less than 4.00.
In the case of `C#CC[C@H]1C[C@H](n2cccc2C(=O)C(F)(F)F)C(=O)O1`, the figures for the Activity with N2a [1] and with N2a [2] were 7.76% and 22.22%, respectively. Further, in the experiment on N2a [3], the pIC50 is 4.01.
On the same counts, the results for `CC(=O)c1cccn1[C@H]1C[C@@H](Cc2cn([C@H]3C[C@H](n4cc(C)c(=O)[nH]c4=O)O[C@@H]3CO)nn2)OC1=O` are 3.67%, 6.61% and 4.02.
On the same counts, the results for `CC(=O)c1cccn1[C@H]1C[C@H](Cc2cn([C@H]3C[C@H](n4cc(C)c(=O)[nH]c4=O)O[C@@H]3CO)nn2)OC1=O` are 9.52%, 14.8% and 4.02.
In the same order, the values of `CC(=O)c1cccn1[C@H]1C[C@H](Cc2cn(Cc3ccccc3)nn2)OC1=O` are -2.23%, 17.02% and 4.17.
For `C#CC[C@H]1C[C@H](n2cccc2C(=O)CC)C(=O)O1`, the Activity in the experiment with N2a [1] was 4.63%; in the experiment with N2a [2], 9.5%. In the experiment on N2a [3], the negative logarithm of the IC50 (pIC50) was 4.39.
